Patent publication US9168295B2, “Vaccine peptide combinations” (Circassia Limited, priority 2007, dated 2015)
Entries after “also recorded” stand apart in the source; their conditions may differ. Where two headings read alike, the source gives them in different places. No end group written: not given here.

Test system: peripheral blood basophils (PBMC) from cat allergic subjects
Test: Histamine release assay and histamine ELISA
Format: cell-based, human
Conditions: for frequency of histamine release, in words: comparison among individual peptides
Procedure: Histamine release from fresh peripheral whole blood from cat allergic subjects was evaluated. Peripheral blood basophils were used as a surrogate for tissue mast cells which were not practical to assay. Blood was incubated in vitro with 9 individual peptides from the sequence of the major cat allergen Fel d 1 (SEQ ID NOS: 1, 2, 3, 4, 5, 6, 7, 11 and 12). These peptides were selected as potential T cell epitopes following peptide-MHC binding assays as explained in Example 1. Additionally, responses to a preferred mixtures of a mixture of 7 peptides identified in Example 1 were analysed. The tested preferred mixture of 7 peptides consisted of the peptides of SEQ ID NOS: 1 to 7. Histamine release in response to whole cat dander allergen extract acted as a positive control.
Peripheral blood mononuclear cells (PBMC) were isolated from the heparinised blood sample obtained from the subject. PBMC's were isolated by Ficoll-Hypaque density gradient separation. Once isolated, the cells were used in the cell proliferation assay, histamine release and ELISA assay and the cytokine release assay.
Assays were performed on PBMC (which contain basophils). Each peptide and combinations of peptides was compared with whole allergen molecules in a histamine release assay. Histamine concentrations were measured by ELISA.
The assay required 3×10^6 PBMC's per subject. The assay was performed using the Immunotech Histamine Release Immunoassay kit according to the manufacturer's instructions. Following the histamine release assay, acylated samples were tested by histamine ELISA. The histamine ELISA used 50 μl of the 100 μl acylated sample generated by the histamine release assay. The remaining 50 μl of sample was retained, by freezing at −20° C. until the data analysis section of the ELISA has been completed. Once the results had been analysed and the ELISA performed in a satisfactory manner, the samples were discarded.
Peptides were assayed for their ability to induce histamine release over a 5 log10 range (10 μg/ml to 1 ng/ml). The concentration range assayed was selected based on theoretical in vivo doses of peptide that may be achieved during therapy. For example, a 10 μg dose of peptide entering a blood volume of 5 litres, would result in a blood concentration of 2 ng/ml (2×10^−6 mg/ml), at the lower end of the histamine release assay dose range. Whole cat dander extract (C.B.F. LETI) was used as a positive control for release over a slightly higher concentration range (100 μg to 10 ng/ml). Single measurements (i.e. not duplicate or triplicate) were performed for each dilution. One duplicate blood sample was assayed for spontaneous histamine release and the mean value of these samples was subtracted from all peptide/allergen results.
After completion of the histamine ELISA, individual histamine levels were determined by interpolation for the standard curve generated in the ELISA assay. Results from samples were adjusted to allow for any dilution of the samples.
Histamine release was considered positive if (a) the highest concentration of peptide alone induced release of 10% or more of the total release value or (b) if two consecutive values were 10% or more of the total release. […] Of these, 6/81 (7.4%) had not positive control release to whole cat allergen extract.

Row | Molecule | number of individuals in whom histamine release was detected (of 81 subjects) | also measured
1 | AVQNTVEDLKLNTLGR [MLA16, AVQNTVEDLKLNTLGR] | 11 | frequency of histamine release, in words: most commonly released histamine; also recorded: the most frequent basophil histamine release responses; also recorded: most frequently associated with histamine release; also recorded: caused most frequent release; also recorded: gave the highest histamine release
2 | CC(C)C[C@H](NC(=O)[C@@H](NC(=O)[C@@H](NC(=O)[C@@H]1CCCN1C(=O)[C@H](CC(C)C)NC(=O)[C@H](C)NC(=O)[C@H](CCCCN)NC(=O)[C@H](Cc1ccc(O)cc1)NC(=O)[C@H](CCC(N)=O)NC(=O)[C@H](C)NC(=O)[C@@H](NC(=O)[C@H](CCC(N)=O)NC(=O)[C@@H](N)CCC(=O)O)C(C)C)C(C)C)C(C)C)C(=O)N[C@@H](CCC(=O)O)C(=O)N[C@@H](CC(N)=O)C(=O)N[C@@H](C)C(=O)O [MLA03, EQVAQYKALPVVLENA] | 6 | 
3 | TAMKKIQDCYVENGLI [MLA12, TAMKKIQDCYVENGLI] | 6 | 
4 | RILKNCVDAKMTEEDKE [MLA05, RILKNCVDAKMTEEDKE] |  | number of individuals in whom histamine release was detected: 1
5 | SRVLDGLVMTTISSSK [MLA14, SRVLDGLVMTTISSSK] | 2 | 
6 | KENALSVLDKIYTSPL [MLA07] |  | number of individuals in whom histamine release was detected: 6
7 | ISSSKDCMGEAVQNTV [MLA15, ISSSKDCMGEAVQNTV] | 7 | frequency of histamine release, in words: most commonly released histamine; also recorded: the most frequent basophil histamine release responses; also recorded: gave the highest histamine release; Comments on histamine release (individual subject): MLA15 JUST ABOVE THE 10% CUT OFF
8 | KALPVVLENARILKNCV [MLA04, KALPVVLENARILKNCV] | 6 | 
